The record followed here is ChEMBL document CHEMBL4602676, “Discovery and Development of 3-(6-Chloropyridine-3-yloxymethyl)-2-azabicyclo[3.1.0]hexane Hydrochloride (SUVN-911): A Novel, Potent, Selective, and Orally Active Neuronal Nicotinic Acetylcholine α4β2 Receptor Antagonist for the Treatment of Depression” (J Med Chem, 2020).

For data set [1], the target named is T1, Neuronal acetylcholine receptor; alpha4/beta2 (Homo sapiens, UniProt P17787+P43681). Put plainly: Displacement of [3H]cytisine from human alpha4beta2 nAChR expressed in CHOK1 cell membrane by microbeta scintillation counting method. The format is cell membranes, CHO-K1.
T1 sequence (P17787 whole entry): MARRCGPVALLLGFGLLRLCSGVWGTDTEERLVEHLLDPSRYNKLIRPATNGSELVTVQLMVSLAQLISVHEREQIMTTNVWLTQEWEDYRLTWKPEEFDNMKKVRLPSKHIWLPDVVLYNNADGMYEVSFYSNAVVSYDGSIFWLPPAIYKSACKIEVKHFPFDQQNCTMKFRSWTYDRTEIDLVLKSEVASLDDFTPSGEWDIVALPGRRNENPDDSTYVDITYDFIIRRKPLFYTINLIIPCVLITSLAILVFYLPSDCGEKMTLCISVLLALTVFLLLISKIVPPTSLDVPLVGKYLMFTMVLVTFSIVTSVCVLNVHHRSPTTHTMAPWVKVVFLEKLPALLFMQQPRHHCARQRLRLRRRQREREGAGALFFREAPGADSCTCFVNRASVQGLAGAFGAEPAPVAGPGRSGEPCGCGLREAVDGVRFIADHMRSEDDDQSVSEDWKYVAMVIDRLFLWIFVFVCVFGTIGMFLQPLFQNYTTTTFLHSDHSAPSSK
T1 sequence (P43681 whole entry): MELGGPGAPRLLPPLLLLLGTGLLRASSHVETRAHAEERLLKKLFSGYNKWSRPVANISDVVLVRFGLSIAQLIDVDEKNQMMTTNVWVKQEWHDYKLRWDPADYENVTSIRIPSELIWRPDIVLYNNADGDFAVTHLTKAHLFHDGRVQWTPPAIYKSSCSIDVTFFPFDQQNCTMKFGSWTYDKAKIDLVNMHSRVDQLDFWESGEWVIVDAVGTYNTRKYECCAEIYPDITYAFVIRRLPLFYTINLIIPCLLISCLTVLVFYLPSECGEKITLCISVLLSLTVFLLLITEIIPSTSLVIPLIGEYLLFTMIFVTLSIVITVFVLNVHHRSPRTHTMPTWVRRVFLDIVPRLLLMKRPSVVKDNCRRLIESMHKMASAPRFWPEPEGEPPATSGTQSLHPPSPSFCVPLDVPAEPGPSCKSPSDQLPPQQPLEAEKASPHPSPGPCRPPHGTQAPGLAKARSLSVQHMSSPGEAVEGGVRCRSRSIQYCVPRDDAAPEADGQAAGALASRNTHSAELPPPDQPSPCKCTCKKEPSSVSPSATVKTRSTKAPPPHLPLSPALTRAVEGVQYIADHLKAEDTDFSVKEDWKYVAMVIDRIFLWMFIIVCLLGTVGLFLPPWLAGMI
The nature of data set [2]: Cmax in Wistar rat at 10 ml/kg, po or 2 ml/kg, iv measured upto 24 hrs by LC-MS/MS analysis. In kind it is ADME, organism-based. As to conditions: in vivo; call rule not given here.
A short description of data set [3]: AUC in Wistar rat at 10 ml/kg, po or 2 ml/kg, iv measured upto 24 hrs by LC-MS/MS analysis. In kind it is ADME, organism-based. The conditions noted are these: in vivo.
Data set [4] is described as follows: Ratio of drug level in brain to plasma in Wistar rat at 10 ml/kg, po or 2 ml/kg, iv measured upto 24 hrs by LC-MS/MS analysis. In kind it is ADME, organism-based. As to conditions: brain and plasma, read-out: BPR.
The test system of data set [5] is Rattus norvegicus. Put plainly: Antidepressant activity in Wistar rat assessed as immobility time at 3.0 mg/kg, po measured for 5 mins by forced swim test (reference value: 241.9 to 281.6 sec). In kind it is functional.
The subject of data set [6] is Rattus norvegicus. The data set is described as follows: Antidepressant activity in Wistar rat assessed as reduction in immobility at 3 mg/kg, po administrated for 3 days and measured for 5 mins by forced swim test relative to control. In kind it is functional. The arrangement: scale not given: the % may be the effect or the level left.
Data set [7] can be described thus: Tmax in Beagle dog at 3 mg/kg, po by LC-MS/MS analysis. In kind it is ADME, organism-based, Canis lupus familiaris. As to conditions: in vivo.
Data set [8] can be described thus: AUC (0 to t) in Beagle dog at 3 mg/kg, po by LC-MS/MS analysis. As to conditions: in vivo. The format is ADME, organism-based, Canis lupus familiaris.
Data set [9] is described as follows: Protein binding in dog plasma assessed as unbound fraction at […] incubated for 6 hrs by LC-MS/MS analysis. In kind it is ADME, cell-free, Canis lupus familiaris.
In data set [10] the target is T1, Neuronal acetylcholine receptor; alpha4/beta2. The data set is described as follows: Antagonist activity at alpha4beta2 nAChR (unknown origin) expressed in HEK293 cells assessed as reduction in acetylcholine-induced currents at -80 mV holding potential by whole-cell patch clamp method. In kind it is cell-based. For orientation: Patch clamp records ionic current or voltage across a cell membrane.

Data set [11] addresses Neuronal acetylcholine receptor; alpha4/beta2 (Rattus norvegicus) (UniProt P09483+P12390). The data set is described as follows: In vivo receptor occupancy at alpha4beta2 nAChR in Wistar rat pretreated for 15 mins followed by non radiolabelled ZW-104 tracer treatment and measured after 45 mins by LC-MS/MS analysis. In kind it is functional, organism-based.
For data set [12], the target named is Neuronal acetylcholine receptor; alpha4/beta2 (Rattus norvegicus, UniProt P09483+P12390). Put plainly: In vivo receptor occupancy at alpha4beta2 nAChR in Wistar rat assessed as plasma concentration pretreated for 15 mins followed by non radiolabelled ZW-104 tracer treatment and measured after 45 mins by LC-MS/MS analysis. In kind it is functional, organism-based.
Neuronal acetylcholine receptor; alpha4/beta2 (Rattus norvegicus, UniProt P09483+P12390), sequence (P09483 whole entry): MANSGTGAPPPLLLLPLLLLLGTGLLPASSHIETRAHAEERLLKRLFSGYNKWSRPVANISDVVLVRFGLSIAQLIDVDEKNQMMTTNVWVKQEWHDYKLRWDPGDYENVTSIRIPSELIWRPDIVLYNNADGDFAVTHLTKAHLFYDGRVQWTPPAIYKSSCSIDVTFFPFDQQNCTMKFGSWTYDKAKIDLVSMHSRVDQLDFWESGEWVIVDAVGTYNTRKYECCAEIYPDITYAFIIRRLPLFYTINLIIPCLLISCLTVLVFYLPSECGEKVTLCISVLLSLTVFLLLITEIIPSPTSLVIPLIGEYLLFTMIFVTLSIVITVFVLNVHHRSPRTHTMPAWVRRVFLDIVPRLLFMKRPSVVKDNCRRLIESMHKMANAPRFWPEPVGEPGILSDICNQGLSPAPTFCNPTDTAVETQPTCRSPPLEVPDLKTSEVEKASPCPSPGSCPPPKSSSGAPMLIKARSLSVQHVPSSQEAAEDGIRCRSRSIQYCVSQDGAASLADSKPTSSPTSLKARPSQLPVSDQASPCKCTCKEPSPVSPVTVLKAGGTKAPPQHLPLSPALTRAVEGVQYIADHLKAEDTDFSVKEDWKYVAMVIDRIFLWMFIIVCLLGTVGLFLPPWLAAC
Neuronal acetylcholine receptor; alpha4/beta2 (Rattus norvegicus, UniProt P09483+P12390), sequence (P12390 whole entry): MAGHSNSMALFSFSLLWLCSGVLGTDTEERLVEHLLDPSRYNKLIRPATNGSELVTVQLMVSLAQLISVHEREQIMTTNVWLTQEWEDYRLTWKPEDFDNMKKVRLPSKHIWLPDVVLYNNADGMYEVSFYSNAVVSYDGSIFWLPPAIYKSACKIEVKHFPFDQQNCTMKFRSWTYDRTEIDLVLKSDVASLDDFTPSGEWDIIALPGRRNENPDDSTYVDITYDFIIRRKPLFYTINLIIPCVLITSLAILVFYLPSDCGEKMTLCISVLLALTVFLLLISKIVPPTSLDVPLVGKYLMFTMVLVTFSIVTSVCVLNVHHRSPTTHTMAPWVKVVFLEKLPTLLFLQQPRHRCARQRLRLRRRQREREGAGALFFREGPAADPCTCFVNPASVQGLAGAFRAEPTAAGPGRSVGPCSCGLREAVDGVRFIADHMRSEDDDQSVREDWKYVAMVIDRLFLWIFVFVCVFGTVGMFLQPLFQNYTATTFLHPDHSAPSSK

A short description of data set [13]: Genotoxicity in Salmonella typhimurium TA100 in absence of metabolic activation. In kind it is toxicity. The conditions noted are these: salmonella enterica subsp. enterica serovar typhimurium.
For data set [14], the target named is T2, Organic anion transporter 3 (Homo sapiens, UniProt Q8TCC7).
T2 sequence (Q8TCC7 whole entry): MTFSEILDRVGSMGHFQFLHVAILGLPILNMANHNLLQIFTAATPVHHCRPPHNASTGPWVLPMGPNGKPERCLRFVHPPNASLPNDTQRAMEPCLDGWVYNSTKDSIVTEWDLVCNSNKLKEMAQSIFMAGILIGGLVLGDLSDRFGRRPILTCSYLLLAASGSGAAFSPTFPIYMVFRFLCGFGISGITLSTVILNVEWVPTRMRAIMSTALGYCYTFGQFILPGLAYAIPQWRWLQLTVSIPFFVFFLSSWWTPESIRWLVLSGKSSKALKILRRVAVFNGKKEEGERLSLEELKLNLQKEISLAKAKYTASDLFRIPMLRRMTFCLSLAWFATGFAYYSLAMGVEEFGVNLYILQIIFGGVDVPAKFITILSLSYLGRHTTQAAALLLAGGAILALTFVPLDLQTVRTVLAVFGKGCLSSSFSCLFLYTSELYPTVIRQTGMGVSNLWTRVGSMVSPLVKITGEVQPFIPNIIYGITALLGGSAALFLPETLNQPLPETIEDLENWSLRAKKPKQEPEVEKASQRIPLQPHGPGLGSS
Put plainly: Inhibition of OAT3 (unknown origin).

Data set [15] deals with T3, Solute carrier family 22 member 1 (Homo sapiens, UniProt O15245).
T3 sequence (O15245 whole entry): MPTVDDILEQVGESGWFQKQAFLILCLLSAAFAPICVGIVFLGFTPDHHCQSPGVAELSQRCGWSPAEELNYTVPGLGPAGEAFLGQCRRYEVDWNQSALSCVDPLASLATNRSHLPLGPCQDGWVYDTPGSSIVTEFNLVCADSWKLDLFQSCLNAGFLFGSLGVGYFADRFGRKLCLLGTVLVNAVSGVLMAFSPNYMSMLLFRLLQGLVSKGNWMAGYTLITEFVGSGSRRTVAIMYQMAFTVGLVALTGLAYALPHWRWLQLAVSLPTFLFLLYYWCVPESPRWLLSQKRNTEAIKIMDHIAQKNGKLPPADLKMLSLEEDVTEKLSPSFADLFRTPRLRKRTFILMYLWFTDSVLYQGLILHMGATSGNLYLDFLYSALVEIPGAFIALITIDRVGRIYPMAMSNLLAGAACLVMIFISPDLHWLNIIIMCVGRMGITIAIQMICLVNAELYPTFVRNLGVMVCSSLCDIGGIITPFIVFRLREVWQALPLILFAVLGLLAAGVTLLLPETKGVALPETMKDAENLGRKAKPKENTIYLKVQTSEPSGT
Put plainly: Inhibition of OCT1 (unknown origin).

Data set [16] concerns the target T4, Solute carrier organic anion transporter family member 1B3 (Homo sapiens, UniProt Q9NPD5).
T4 sequence (Q9NPD5 whole entry): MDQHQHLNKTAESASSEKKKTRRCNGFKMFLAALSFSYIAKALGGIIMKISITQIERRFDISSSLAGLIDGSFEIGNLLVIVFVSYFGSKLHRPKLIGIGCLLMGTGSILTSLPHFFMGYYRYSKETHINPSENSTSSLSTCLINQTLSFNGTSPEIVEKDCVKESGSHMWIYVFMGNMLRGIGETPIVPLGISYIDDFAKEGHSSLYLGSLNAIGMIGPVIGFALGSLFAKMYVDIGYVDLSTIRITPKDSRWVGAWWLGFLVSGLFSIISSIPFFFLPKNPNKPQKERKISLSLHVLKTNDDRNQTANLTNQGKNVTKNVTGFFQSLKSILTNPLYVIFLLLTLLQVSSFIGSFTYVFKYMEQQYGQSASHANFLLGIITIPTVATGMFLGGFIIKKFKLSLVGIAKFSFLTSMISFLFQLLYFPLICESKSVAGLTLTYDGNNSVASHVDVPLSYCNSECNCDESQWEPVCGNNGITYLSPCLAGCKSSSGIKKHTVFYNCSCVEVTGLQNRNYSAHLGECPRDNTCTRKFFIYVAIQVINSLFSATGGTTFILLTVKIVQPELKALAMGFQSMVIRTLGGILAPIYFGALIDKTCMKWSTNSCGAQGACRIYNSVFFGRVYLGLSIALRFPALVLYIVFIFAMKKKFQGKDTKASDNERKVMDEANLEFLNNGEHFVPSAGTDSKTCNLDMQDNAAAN
The data set is described as follows: Inhibition of OATP1B3 (unknown origin).

Data set [17] is described as follows: Genotoxicity in Salmonella typhimurium TA1537 in presence of metabolic activation. As to conditions: salmonella enterica subsp. enterica serovar typhimurium. The format is toxicity.
Data set [18] is described as follows: Genotoxicity in Salmonella typhimurium TA100 in presence of metabolic activation. In kind it is toxicity. As to conditions: salmonella enterica subsp. enterica serovar typhimurium.

The Ki is a dissociation constant, usually derived from enzyme kinetics or from competition with a known ligand. As usually defined, the Cmax is the peak of the concentration-time curve. A word on the AUC: it is the area under the concentration-time curve, a measure of exposure. For orientation: Tmax means the time at which the peak concentration occurs. What is called AUC(0-t) is the area under the concentration-time curve up to a stated or last time point. As a reminder, the fraction unbound is free concentration divided by total concentration. For orientation: IC50 means the concentration that inhibits the measured activity by half. As a reminder, the EC50 is the midpoint of the concentration-response curve. The molecule `Cl.Clc1ccc(OC[C@@H]2C[C@H]3C[C@H]3N2)cn1` came in with a Ki in data set [1] of 0.0015 µM. In data set [2], this molecule displayed a Cmax of 1910 ng/mL. The molecule further came in with an AUC at 24 h in data set [3] of 3510 ng·h/mL. In data set [4], the Kp at 24 h stood at 2.34. In addition, the Time with Rattus norvegicus [5] is 155.9 s. Further, the Activity is 35.81% in the data set on Rattus norvegicus [6]; “Dose-dependent effect” in [11]; “Non-Toxic” in data set [13]; “Non-Toxic” in data set [17]; “Non-Toxic” in data set [18]. Moreover, in data set [7], the Tmax was determined as 18 min. Besides, the AUC(0-t) in data set [8] was 4350 ng·h/mL. The fraction unbound at 6 h in data set [9] came out at 0.31. Besides, the IC50 in [10] is 7.31 µM. The ED50 in data set [11] was 1.61 µM. Besides, in data set [12], the EC50 turned out to be 259 µM. In addition, the “inhibition (INH)” value in data set [14], in data set [15] and in data set [16] was “Not Active” throughout.
